# According to US12371460B2, “Glycan-binding proteins and related compositions and methods” (priority 2019, dated 2025):
# Molecular target: Sulfolobus solfataricus Sso7d (rcSso7d, SEQ ID NO: 1) variant clone E, SEQ ID NO: 398 (Saccharolobus solfataricus, UniProt P61991, A45G/K22H/K28Q/K40A/K7T/K9Q/M29W/R43W/S31W/T33I/T41K/V26W/W24R)
# Experiment: biolayer interferometry, clone E immobilized on Ni-NTA tip
# Assay type: binding
# Details: 1 uM solution of the sugar; FIG. 2E
# Description: The traces show an increase in nm as sugar starts binding to protein on the tip, then a decrease in nm as the tip is moved from the sugar solution to buffer only.
# Sulfolobus solfataricus Sso7d (rcSso7d, SEQ ID NO: 1) variant clone E, SEQ ID NO: 398, sequence (P61991 other isoform, or with tags, fused parts or gaps with the stated changes): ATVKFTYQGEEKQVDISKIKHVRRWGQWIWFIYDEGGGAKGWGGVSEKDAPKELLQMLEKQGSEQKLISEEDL
compound,measurement,value
"CC(=O)N[C@@H]1[C@@H](O[C@@H]2O[C@H](CO)[C@H](O)[C@H](O)[C@H]2O)[C@@H](O)[C@@H](CO)O[C@@H]1O [TF antigen, Galβ1-3GalNAcα]",binding (biolayer interferometry traces),bound
